Assay results as given in article PMC9948168, “Vanillin-Based Indolin-2-one Derivative Bearing a Pyridyl Moiety as a Promising Anti-Breast Cancer Agent via Anti-Estrogenic Activity” (ACS Omega, 2023).

Assays:
Experiment in all cases: NCI-60 one-dose screening
Format in all cases: cell-based
HOP-62 = conditions: Homo sapiens, HOP-62, Non-Small Cell Lung Cancer, read-out: GI (%)
Method: (§1) Compounds 5a–c and 6a–o were tested using standard NCI protocols for in vitro activity at the National Cancer Institute (NCI, Bethesda, Maryland, USA), wherein compounds were tested using one single concentration of 10 μM against 60 cell lines of nine different cancer types. […] Excellent activity was observed against a single NSCLC cell line, EKVX, for compounds 5a–c (GIs = 77–86%, Table 1) with no observed activity for indoles with substituted vanillin 6a–o.
(§2) Anticancer activity was tested against 60 cancer cell lines at the NCI, Bethesda, USA. The screening process was done with a single dosage of 10 μM according to NCI protocols published on the NCI website https://dtp.cancer.gov/discovery_development/nci-60/methodology.htm.

SF-539 = conditions: Homo sapiens, SF-539, CNS Cancer, read-out: GI (%)
Method: as §1, §2

ACHN = conditions: Homo sapiens, Renal Cancer, read-out: GI (%)
Method: as §1, §2

NCI-H226 = conditions: Homo sapiens, NCI-H226, Non-Small Cell Lung Cancer, read-out: GI (%)
Method: as §1, §2

SF-295 = conditions: Homo sapiens, SF-295, CNS Cancer, read-out: GI (%)
Method: as §1, §2

COLO 205 = conditions: Homo sapiens, COLO 205, Colon Cancer, read-out: GI (%)
Method: as §1, §2

NCI-H460 = conditions: Homo sapiens, NCI-H460, Non-Small Cell Lung Cancer, read-out: GI (%)
Method: as §1, §2

BT-549 = conditions: Homo sapiens, BT-549, Breast Cancer, read-out: GI (%)
Method: as §1, §2

HCT-116 = conditions: Homo sapiens, HCT-116, Colon Cancer, read-out: GI (%)
Method: as §1, §2

HS 578T = conditions: Homo sapiens, Breast Cancer, read-out: GI (%)
Method: as §1, §2

NCI/ADR-RES = conditions: Homo sapiens, Ovarian Cancer, read-out: GI (%)
Method: as §1, §2

DU-145 = conditions: Homo sapiens, DU-145, Prostate Cancer, read-out: GI (%)
Method: as §1, §2

SK-MEL-28 = conditions: Homo sapiens, SK-MEL-28, Melanoma, read-out: GI (%)
Method: as §1, §2

SW-620 = conditions: Homo sapiens, SW-620, Colon Cancer, read-out: GI (%)
Method: as §1, §2

MDA-MB-231/ATCC = conditions: Homo sapiens, Breast Cancer, read-out: GI (%)
Method: as §1, §2

HT29 = conditions: Homo sapiens, HT-29, HT29, Colon Cancer, read-out: GI (%)
Method: as §1, §2

MCF7 = conditions: Homo sapiens, MCF7, 10 μM; MCF7, Breast Cancer; read-out: GI (%)
Method: as §1, §2

SK-OV-3 = conditions: Homo sapiens, SK-OV-3, Ovarian Cancer, read-out: GI (%)
Method: as §1, §2

SNB-19 = conditions: Homo sapiens, SNB-19, CNS Cancer, read-out: GI (%)
Method: as §1, §2

UACC-257 = conditions: Homo sapiens, UACC-257, Melanoma, read-out: GI (%)
Method: as §1, §2

A498 = conditions: Homo sapiens, A498, Renal Cancer, read-out: GI (%)
Method: as §1, §2

U251 = conditions: Homo sapiens, U-251, U251, CNS Cancer, read-out: GI (%)
Method: as §1, §2

IGROV1 = conditions: Homo sapiens, IGROV-1, IGROV1, Ovarian Cancer, read-out: GI (%)
Method: as §1, §2

EKVX = conditions: Homo sapiens, Non-Small Cell Lung Cancer, read-out: GI (%)
Method: as §1, §2

LOX IMVI = conditions: Homo sapiens, Melanoma, read-out: GI (%)
Method: as §1, §2

UACC-62 = conditions: Homo sapiens, UACC-62, Melanoma, read-out: GI (%)
Method: as §1, §2

HL-60(TB) = conditions: Homo sapiens, Leukemias, read-out: GI (%)
Method: as §1, §2

MDA-MB-468 = conditions: Homo sapiens, MDA-MB-468, Breast Cancer, read-out: GI (%)
Method: as §1, §2

CCRF-CEM = conditions: Homo sapiens, Leukemias, read-out: GI (%)
Method: as §1, §2

A549/ATCC = conditions: Homo sapiens, Non-Small Cell Lung Cancer, read-out: GI (%)
Method: as §1, §2

NCI-H522 = conditions: Homo sapiens, NCI-H522, Non-Small Cell Lung Cancer, read-out: GI (%)
Method: as §1, §2

OVCAR-5 = conditions: Homo sapiens, OVCAR-5, Ovarian Cancer, read-out: GI (%)
Method: as §1, §2

786-0 = conditions: Homo sapiens, 786-0, Renal Cancer, read-out: GI (%)
Method: as §1, §2

UO-31 = conditions: Homo sapiens, UO-31, Renal Cancer, read-out: GI (%)
Method: as §1, §2

K-562 = conditions: Homo sapiens, K562, K-562, Leukemias, read-out: GI (%)
Method: as §1, §2

SNB-75 = conditions: Homo sapiens, SNB-75, CNS Cancer, read-out: GI (%)
Method: as §1, §2

SMILES | inhibition at 10 µM (HOP-62) | inhibition at 10 µM (SF-539) | inhibition at 10 µM (ACHN) | inhibition at 10 µM (NCI-H226) | inhibition at 10 µM (SF-295) | inhibition at 10 µM (COLO 205) | inhibition at 10 µM (NCI-H460) | inhibition at 10 µM (BT-549) | inhibition at 10 µM (HCT-116) | inhibition at 10 µM (HS 578T) | inhibition at 10 µM (NCI/ADR-RES) | inhibition at 10 µM (DU-145) | inhibition at 10 µM (SK-MEL-28) | inhibition at 10 µM (SW-620) | inhibition at 10 µM (MDA-MB-231/ATCC) | inhibition at 10 µM (HT29) | inhibition at 10 µM (MCF7) | inhibition at 10 µM (SK-OV-3) | inhibition at 10 µM (SNB-19) | inhibition at 10 µM (UACC-257) | also measured
COc1ccc(COc2ccc(/C=C3/C(=O)Nc4cc(Cl)ccc43)cc2OC)cc1 [6n] | 4.49% | 9.72% | 5.82% | 6.67% | -2.14% | -11.1% | 20.7% | 0.06% | 11.1% | 0.21% | 0.37% | 3.17% | -2.94% | 3.63% | 5.7% | -0.76% | 24% | -7.5% | 1.46% | -21.9% | inhibition at 10 µM (A498): 6.39%; inhibition at 10 µM (U251): -6.11%; inhibition at 10 µM (IGROV1): 20.1%; inhibition at 10 µM (EKVX): 13.1%; inhibition at 10 µM (LOX IMVI): -2.89%; inhibition at 10 µM (UACC-62): 12.2%; inhibition at 10 µM (HL-60(TB)): -13.9%; inhibition at 10 µM (MDA-MB-468): 7.72%; inhibition at 10 µM (CCRF-CEM): 5.65%; inhibition at 10 µM (A549/ATCC): -12.9%; inhibition at 10 µM (NCI-H522): 11.5%; inhibition at 10 µM (OVCAR-5): 2.3%; inhibition at 10 µM (786-0): -6.9%; inhibition at 10 µM (UO-31): 18.6%; inhibition at 10 µM (K-562): -2.8%; inhibition at 10 µM (SNB-75): -12.8%
COc1cc(/C=C2/C(=O)Nc3cc(Cl)ccc32)ccc1OCc1ccccn1 [6o] | 3.58% | 4.76% | 5.07% | 5.24% | -1.12% | -18.8% | -3.23% | 3.31% | 2.05% | -1.2% | -7.14% | -7.21% | -7.43% | 0.42% | 13.4% | -15.4% | 27.7% | -7.09% | -1.66% | -22.8% | inhibition at 10 µM (A498): -7.62%; inhibition at 10 µM (U251): -7.72%; inhibition at 10 µM (IGROV1): 25.2%; inhibition at 10 µM (EKVX): 25.3%; inhibition at 10 µM (LOX IMVI): 2.38%; inhibition at 10 µM (UACC-62): 6.45%; inhibition at 10 µM (HL-60(TB)): -17.3%; inhibition at 10 µM (MDA-MB-468): -3.25%; inhibition at 10 µM (CCRF-CEM): -8.83%; inhibition at 10 µM (A549/ATCC): -15.6%; inhibition at 10 µM (NCI-H522): -1.8%; inhibition at 10 µM (OVCAR-5): 2.11%; inhibition at 10 µM (786-0): -11.2%; inhibition at 10 µM (UO-31): 16.6%; inhibition at 10 µM (K-562): 8.79%; inhibition at 10 µM (SNB-75): -0.58%
COc1cc(/C=C2/C(=O)Nc3ccc(Cl)cc32)ccc1OCc1ccccc1 [6f] | 6.15% | 2.76% | 3.68% | 1.24% | -0.63% | -7.79% | -1.96% | -5.93% | -13% | 3.94% | -2.56% | -11.6% | -4.79% | 4.03% | 7.87% | -2.07% | 19.2% | -9.53% | 3.8% | -3.74% | inhibition at 10 µM (A498): -2.34%; inhibition at 10 µM (U251): 2.36%; inhibition at 10 µM (IGROV1): 1.82%; inhibition at 10 µM (EKVX): 4.35%; inhibition at 10 µM (LOX IMVI): -3.97%; inhibition at 10 µM (UACC-62): 11.5%; inhibition at 10 µM (HL-60(TB)): 0.49%; inhibition at 10 µM (MDA-MB-468): 5.59%; inhibition at 10 µM (CCRF-CEM): 1.07%; inhibition at 10 µM (A549/ATCC): -0.72%; inhibition at 10 µM (NCI-H522): 9.25%; inhibition at 10 µM (OVCAR-5): -0.26%; inhibition at 10 µM (786-0): -3.53%; inhibition at 10 µM (UO-31): 22.4%; inhibition at 10 µM (K-562): -8.73%; inhibition at 10 µM (SNB-75): 7.95%
COc1ccc(COc2ccc(/C=C3/C(=O)Nc4ccccc43)cc2OC)cc1 [6d] | -0.03% | 4.08% | 7.61% | -3.18% | -3.32% | -22.9% | -2.81% | 7.88% | -8.46% | -5.29% | -6.16% | -8.53% | -6.58% | 0.87% | 0.09% | -7.81% | 6% | -19.1% | 2.66% | -15.9% | inhibition at 10 µM (A498): -10.3%; inhibition at 10 µM (U251): -9.05%; inhibition at 10 µM (IGROV1): -7.35%; inhibition at 10 µM (EKVX): 0.23%; inhibition at 10 µM (LOX IMVI): 3.43%; inhibition at 10 µM (UACC-62): 3.29%; inhibition at 10 µM (HL-60(TB)): -14.7%; inhibition at 10 µM (MDA-MB-468): -0.39%; inhibition at 10 µM (CCRF-CEM): -3.81%; inhibition at 10 µM (A549/ATCC): -9.19%; inhibition at 10 µM (NCI-H522): 6.6%; inhibition at 10 µM (OVCAR-5): 0.08%; inhibition at 10 µM (786-0): -4.67%; inhibition at 10 µM (UO-31): 19.6%; inhibition at 10 µM (K-562): -0.85%; inhibition at 10 µM (SNB-75): 2.65%
COc1cc(C=C2C(=O)Nc3ccccc32)ccc1OCc1ccccc1 (mixture of isomers) [6a] | -3.56% | 0.76% | 6.95% | -0.06% | -1.61% | -17.8% | 20.2% | 1.2% | 10.3% | -7.03% | 1.52% | 0.43% | -5.94% | 9.55% | 5.3% | -2.25% | 35.7% | -10.3% | 0.53% | -21.2% | inhibition at 10 µM (A498): -0.19%; inhibition at 10 µM (U251): -6.68%; inhibition at 10 µM (IGROV1): 5.2%; inhibition at 10 µM (EKVX): 8.21%; inhibition at 10 µM (LOX IMVI): 7.61%; inhibition at 10 µM (UACC-62): 7.55%; inhibition at 10 µM (HL-60(TB)): -10.5%; inhibition at 10 µM (MDA-MB-468): 8.69%; inhibition at 10 µM (CCRF-CEM): 9.45%; inhibition at 10 µM (A549/ATCC): -9.96%; inhibition at 10 µM (NCI-H522): 9.6%; inhibition at 10 µM (OVCAR-5): -2.62%; inhibition at 10 µM (786-0): -0.73%; inhibition at 10 µM (UO-31): 25.3%; inhibition at 10 µM (K-562): 3.5%; inhibition at 10 µM (SNB-75): -0.57%
